Several values for one entry are separate records, joined by “and”; a condition that tells them apart may be missing. Equal entries are not always repeated. Marks after values point to notes of the source that are not given here.
Tests used:
[1] = test system: Nitric Oxide Synthase (NOS) system; assay: Residual nitrite in plastic casing test tube ground pork loin sausages (Example 10); settings: for Nitrite Pellet / Nitrite Supernatant: cooked
Experimental: The desired cured color could not initially be generated in a variety of processed meat products in a pilot plant setting. […] Pork loins (N=2) procured from a local meat distributor (Mar. 18, 2019) were used. Eight pounds of pork loins were ground (½″ then ¼″ plate) and weighed out in one pound portions. Plastic waterproof casings (2″ diameter) were clipped at one end. One pound of ground pork loin was placed in the casing and two pounds of brine (L-arginine concentration 7498 ppm) were added and the open end of the casing clipped. Based on laboratory test tube studies, meat samples would absorb 20-25% of the solution which equates to absorption of approximately 1500 ppm of L-arginine. Each plastic casing contained the same proportion of meat and brine as conducted during previous laboratory experiments (Table 12). A control was manufactured by substituting distilled water for the L-arginine brine.
After thermal processing the plastic casing test tubes were cut open and emptied into beakers, then separated into residue (meat particles) and supernatant (liquid) via paper filtration into 50 mL conical tubes for collection and subsequent analysis for residual nitrite (supernatant) and cured pigment formation/nitrosylation (meat residue).
Nitrosylation and residual nitrite analyses was performed under reduced light to avoid loss of pigmentation. L-arginine treated test tube pork sausage averaged 53.12 to 72.30 ppm of residual nitrite in the cooked meat pellet with percent nitrosylation ranging from 33 to 60 percent (Table 13). The brine was formulated to deliver 1500 ppm ingoing L-arginine at 25% absorption into the meat after two hours of immersion in the brine solution.

[2] = test system: Nitric Oxide Synthase (NOS) system; assay: Cure efficiency (NO-heme, total heme, nitrosylation) of cooked pre- and post-rigor pork semimembranosus muscle (Example 13); assay type: biochemical
Experimental: Cooked meat samples were analyzed for the degree of nitrosylation through residual nitrite from the Pearson and Tauber method from the modified Hornsey's procedure for analyzing small samples [103] from the supernatant and pellet. 2 mL or 2 g of the samples were treated with acetone to measure NO-heme concentration and for total heme concentration, 2 mL or 2 g of the samples were treated with acetone and hydrochloric acid. Both samples were measured using a spectrophotometer (2100 Series Spectrophotometer, Unico, Dayton, N.J.) and a 1 cm quartz cuvette. NO-heme concentration (ppm acid hematin) was read at 540 nm, and total heme concentration (ppm acid hematin) was determined at 640 nm to determine nitrosylation as the indication of the effectiveness of L-arginine in curing the samples. This procedure measured the conversion levels of myoglobin to nitrosohemochromagen, the cured meat color, and the amount of conversion as compared to the total pigmentation within the sample.
Curing efficiency or nitrosylation is calculated as the percentage conversion of NO-heme to total heme. Cure efficiency is the percentage of total pigment converted to nitroso pigment and indicates the degree of cured color fading. Cured meat pigment is extracted in a solution of 80% acetone and 20% water that extracts cured pigment heme. Total heme pigments are extracted using an acidified acetone solution that extracts heme from all heme proteins as first used by Hornsey. NO-heme concentration (as ppm acid hematin)=sample A540×290 determines the specific cure color pink from the rest of the heme pigmentation of the sample. Total heme concentration (ppm acid hematin)=sample A640×680 determines the total heme pigmentation of the sample. Cure efficiency (%)=(ppm of nitrosoheme […]ppm of total pigment)×100 and indicates how much of the product is cured and holds the cured pink stability once cooked.

[3] = 2 mM L-arginine, cooked post rigor pellet
[4] = 2 mM L-arginine, cooked post rigor supernatant
[5] = 2 mM L-arginine, cooked pre-rigor pellet
[6] = 2 mM L-arginine, cooked pre-rigor supernatant
[7] = 4 mM L-arginine, cooked post rigor pellet
[8] = 4 mM L-arginine, cooked post rigor supernatant
[9] = 4 mM L-arginine, cooked pre-rigor pellet
[10] = 4 mM L-arginine, cooked pre-rigor supernatant
[11] = 8 mM L-arginine, cooked post rigor pellet
[12] = 8 mM L-arginine, cooked post rigor supernatant
[13] = 8 mM L-arginine, cooked pre-rigor pellet
[14] = 8 mM L-arginine, cooked pre-rigor supernatant
[15] = 16 mM L-arginine, cooked post rigor pellet
[16] = 16 mM L-arginine, cooked post rigor supernatant
[17] = 16 mM L-arginine, cooked pre-rigor pellet
[18] = 16 mM L-arginine, cooked pre-rigor supernatant
[19] = 32 mM L-arginine, cooked post rigor pellet
[20] = 32 mM L-arginine, cooked post rigor supernatant
[21] = 32 mM L-arginine, cooked pre-rigor pellet
[22] = 32 mM L-arginine, cooked pre-rigor supernatant

N=C(N)NCCC[C@H](N)C(=O)O [L-arginine]
Nitrite Pellet ([1]; 10% L-arginine brine (formulated for 1500 ppm L-arginine)): 72.31^a ppm | Nitrite Supernatant ([1]; 10% L-arginine brine): 33.48^a ppm | Nitrite Pellet ([1]; 15% L-arginine brine (formulated for 1500 ppm L-arginine)): 53.12^ab ppm | Nitrite Supernatant ([1]; 15% L-arginine brine): 36.50^a ppm | Nitrite Pellet ([1]; 20% L-arginine brine (formulated for 1500 ppm L-arginine)): 59.52^ab ppm | Nitrite Supernatant ([1]; 20% L-arginine brine): 40.80^a ppm | Nitrite Pellet ([1]; 25% L-arginine brine (formulated for 1500 ppm L-arginine)): 59.63^ab ppm | Nitrite Supernatant ([1]; 25% L-arginine brine): 35.34^a ppm | residual nitrite in the cooked meat pellet ([1]; range of averages over brine additions 10-25%): 53.12 to 72.30 ppm | NO-Heme [2, 3]: 16.10^b ppm | Nitrosylation [2, 3]: 31.22^a % | Total Heme [2, 3]: 62.56^a ppm | NO-Heme [2, 4]: 23.76^a ppm | Nitrosylation [2, 4]: 61.38^a % | Total Heme [2, 4]: 64.43^a ppm | NO-Heme [2, 5]: 19.02^a ppm | Nitrosylation [2, 5]: 52.09^a % | Total Heme [2, 5]: 61.48 ppm and 61.48^ab ppm | NO-Heme [2, 6]: 26.02 ppm and 26.02^ab ppm | Nitrosylation [2, 6]: 60.23^a % | Total Heme [2, 6]: 50.43^a ppm | NO-Heme [2, 7]: 19.72 ppm and 19.72^ab ppm | Nitrosylation [2, 7]: 35.19^a % | Total Heme [2, 7]: 67.72^a ppm | NO-Heme [2, 8]: 22.81^a ppm | Nitrosylation [2, 8]: 55.90^a % | Total Heme [2, 8]: 73.33^a ppm | NO-Heme [2, 9]: 18.82^a ppm | Nitrosylation [2, 9]: 49.31^a % | Total Heme [2, 9]: 52.07 ppm and 52.07^ab ppm | NO-Heme [2, 10]: 28.17 ppm and 28.17^ab ppm | Nitrosylation [2, 10]: 70.03^a % | Total Heme [2, 10]: 40.86^a ppm | NO-Heme [2, 11]: 18.34 ppm and 18.34^ab ppm | Nitrosylation [2, 11]: 35.53^a % | Total Heme [2, 11]: 63.58^a ppm | NO-Heme [2, 12]: 25.98^a ppm | Nitrosylation [2, 12]: 79.27^a % | Total Heme [2, 12]: 62.90^a ppm | NO-Heme [2, 13]: 16.38^a ppm | Nitrosylation [2, 13]: 31.43^a % | Total Heme [2, 13]: 80.07 ppm and 80.07^ab ppm | NO-Heme [2, 14]: 32.98^a ppm | Nitrosylation [2, 14]: 75.71^a % | Total Heme [2, 14]: 45.11^a ppm | NO-Heme [2, 15]: 18.42 ppm and 18.42^ab ppm | Nitrosylation [2, 15]: 62.80^a % | Total Heme [2, 15]: 51.68^a ppm | NO-Heme [2, 16]: 20.54^a ppm | Nitrosylation [2, 16]: 52.33^a % | Total Heme [2, 16]: 54.46^a ppm | NO-Heme [2, 17]: 26.56^a ppm | Nitrosylation [2, 17]: 55.29^a % | Total Heme [2, 17]: 123.31 ppm and 123.31^a ppm | NO-Heme [2, 18]: 22.45 ppm and 22.45^ab ppm | Nitrosylation [2, 18]: 55.02^a % | Total Heme [2, 18]: 42.05^a ppm | NO-Heme [2, 19]: 27.33 ppm and 27.33^a ppm | Nitrosylation [2, 19]: 34.51^a % | Total Heme [2, 19]: 85.11^a ppm | NO-Heme [2, 20]: 25.50^a ppm | Nitrosylation [2, 20]: 104.27^a % | Total Heme [2, 20]: 59.73^a ppm | NO-Heme [2, 21]: 33.37^a ppm | Nitrosylation [2, 21]: 86.11^a % | Total Heme [2, 21]: 53.72 ppm and 53.72^ab ppm | NO-Heme [2, 22]: 27.67^ab ppm | Nitrosylation [2, 22]: 66.20^a % | Total Heme [2, 22]: 44.94^a ppm

— US20230029496A1, “AMINO ACID ALTERNATIVE CURING SYSTEM” (THE TEXAS A&M UNIVERSITY SYSTEM, priority 2019, published 2023)
